Data taken from patent publication US20250281561A1, “APPLICATION OF LYCIUM BARBARUM LEAF EXTRACT IN PREPARING DRUG FOR TREATING DIABETIC RETINOPATHY” (NANJING UNIVERSITY OF CHINESE MEDICINE, priority 2025, published 2025).

Assays:
[1] = system: p38, ERK and JNK genes in a MAPK pathway; experiment: qPCR gene expression level (p38, ERK, JNK) in DR zebrafish; type: in vivo; details: crude drug dosage high 40 μg/mL, low 20 μg/mL, three days, compared with model group
Method: (§1) 3dpf zebrafish embryos were cultured in a 6-well plate, with 30 zebrafish embryos in each well. A model group and an administration group were cultured in 100 mg/mL circulating water, and divided into a Con group, a Mod group, a metformin (MET) group, a ST-H group, a ST-L group, a CT-H group, a CT-L group, a FT-H group, a FT-L group, a DT-H group, a DT-L group, a SWJ-H group, and a SWJ-L group. An administration dosage for the MET group was 200 μg/ml, and a crude drug dosage was converted for other administration groups, wherein a high dose was 40 μg/mL, and a low dose was 20 μg/mL. The zebrafish embryos were cultured for three days, and the water was replaced at a fixed time every day.
The cultured zebrafish embryos were collected into Ep tubes, and each tube was added with 1 mL of TRIZOL and then homogenized, and centrifuged at 4° C. and 12000× g for 10 minutes. A supernatant was taken, and other operations were as described in 2.3.

DR zebrafish [2] = experiment: Kit detection of glucose content and oxidative stress level (GSH, SOD, MDA) in DR zebrafish; type: in vivo
Method: as §1
Wild A/B-type zebrafish embryos were cultured according to the above method, and then the zebrafish embryos were collected into Ep tubes and then homogenized, and centrifuged at 4000 rpm for 10 minutes. A supernatant was taken, and GLU and GSH levels and SOD and MDA activities in cells were detected according to a kit instruction.

[3] = system: ARPE-19 cells with high glucose-induced damage; experiment: CCK8 survival rate of ARPE-19 cells with high glucose-induced damage; type: cell-based; details: 300 mM glucose, 48 hours; high dose 10 μg/mL, low dose 1 μg/mL; compared with model group
Method: Preparation method of active ingredient solution of Lycium barbarum leaf: 1 mg of freeze-dried powder of different active ingredients of Lycium barbarum leaf (Lycium barbarum leaf water extract, Lycium barbarum leaf ethanol extract, refined Lycium barbarum leaf extract, Lycium barbarum polysaccharide, and betaine) prepared in Embodiment 1 was weighed respectively, and dissolved in 1 mL of DMEM/F12 culture medium to prepare 1 mg/mL solution, and the solution was diluted to a required concentration with DMEM/F12 culture medium during administration, and filtered with a […] filter for sterilization. […]
The cells were inoculated into a 96-well plate during culture, and divided into a control group (Con group), a model group (Mod group), a high-dose Lycium barbarum leaf water extract group (ST-H group), a low-dose Lycium barbarum leaf water extract group (ST-L group), a high-dose Lycium barbarum leaf ethanol extract group (CT-H group), a low-dose Lycium barbarum leaf ethanol extract group (CT-L group), […], a low-dose Lycium barbarum polysaccharide group (DT-L group), a high-dose betaine group (SWJ-H group), and a low-dose betaine group (SWJ-L group), wherein the high dose was 10 μg/mL and the low dose was 1 μg/mL. […] An absorbance was measured at 450 nm, and a cell survival rate was calculated.

[4] = system: p38, ERK and JNK genes in a MAPK pathway; experiment: qPCR gene expression level (p38, ERK, JNK) in ARPE-19 cells with high glucose-induced damage; type: cell-based; details: 10 μg/mL, compared with model group
Method: (§2) The ARPE-19 cells were cultured in DMEM/F12 culture medium containing 10% FBS and 1% penicillin/streptomycin at 37° C. under 5% CO2. A model group was treated with 300 mM glucose, and the culture medium was added with a corresponding drug to culture the cells for 48 hours to complete the modeling.
The cells were inoculated into a 6-well plate during cell culture, and divided into a Con group, a Mod group, a ST group, a CT group, a FT group, a DT group, and a SWJ group, wherein the administration dosage was 10 μg/mL. The cells were collected into Ep tubes and centrifuged at 1000 rpm for 5 minutes, and a supernatant was discarded. Each tube was added with 1 ml of Trizol reagent and blown violently for 15 seconds to mix fully and evenly, and the mixture was allowed to stand at room temperature for 2-3 minutes, and rotated at 4° C. for 1-2 hours. […] A concentration was determined by an ultra-micro ultraviolet spectrophotometer, and then the mixture was stored in a refrigerator at −80° C. for later use. […]
The reaction system was mixed fully and evenly, added to a 96-well PCR plate, centrifuged, and determined by a PCR machine. […] A CT value of a sample was determined, and then relative expressions of p38, JNK and ERK in the sample were calculated by a 2-ΔΔCT method.

DR zebrafish [5] = experiment: Retinal vascular diameter in DR zebrafish (fli1: EGFP, fluorescence microscope, ImageJ); type: in vivo; details: crude drug dosage high 40 μg/mL, low 20 μg/mL, three days, compared with model group
Method: as §1
3dpf fli1: EGFP zebrafish embryos were cultured by the method as described in 2.4, and 0.003% phenylthiourea (PTU) was added into circulating water to inhibit melanogenesis of the zebrafish embryos. After the culture was completed, the zebrafish embryos were collected, and fixed on a glass slide. The retinal vessels in the zebrafish were photographed by a fluorescence microscope, and a retinal vascular diameter was measured by ImageJ.

[6] = system: ARPE-19 cells with high glucose-induced damage; experiment: Kit detection of oxidative stress level (GSH, SOD, MDA) in ARPE-19 cells with high glucose-induced damage; type: cell-based; details: summary statement
Method: Preparation method of active ingredient solution of Lycium barbarum leaf: 1 mg of freeze-dried powder of different active ingredients of Lycium barbarum leaf (Lycium barbarum leaf water extract, Lycium barbarum leaf ethanol extract, refined Lycium barbarum leaf extract, Lycium barbarum polysaccharide, and betaine) prepared in Embodiment 1 was weighed respectively, and dissolved in 1 mL of DMEM/F12 culture medium to prepare 1 mg/mL solution, and the solution was diluted to a required concentration with DMEM/F12 culture medium during administration, and filtered with a […] filter for sterilization.
as §2
The cells were inoculated into a 6-well plate during cell culture, and divided into a Con group, a Mod group, a ST-H group, a ST-L group, a CT-H group, a CT-L group, a FT-H group, a FT-L group, a DT-H group, a DT-L group, a SWJ-H group, and a SWJ-L group, wherein the high dose was 10 μg/mL and the low dose was 1 μg/mL. […] A GSH level, and SOD and MDA activities in the cells were detected according to a kit instruction.

[7] = system: ARPE-19 cells with high glucose-induced damage; experiment: ROS content (H2FCDA fluorescence) in ARPE-19 cells with high glucose-induced damage; type: cell-based; details: high dose 10 g/mL, low dose 1 μg/mL, compared with model group
Method: as §2
The cells were inoculated into a 96-well plate during culture, and divided into a Con group, a Mod group, a ST-H group, a ST-L group, a CT-H group, a CT-L group, a FT-H group, a FT-L group, a DT-H group, a DT-L group, a SWJ-H group, and a SWJ-L group, wherein the high dose was […] and the low dose was 1 μg/mL. After the culture was completed, the culture medium was discarded, and a culture medium containing 1/1000 H2FCDA was added to incubate the cells at 37° C. for 30 minutes. A photo was taken by a fluorescence microscope at an excitation wavelength of 488 nm, and a fluorescence intensity was analyzed by ImageJ.

Q: Which “relative mRNA expressions of p38, ERK and JNK” value [1] does the source give for `C[N+](C)(C)CC(=O)O` [betaine] here?
A: The value was “down-regulate expression levels”.

Q: And the oxidative stress (DR zebrafish [2]; DR zebrafish model, summary statement)?
A: Its oxidative stress is “improve oxidative stress”.

Q: And the glucose content (DR zebrafish [2]; DR zebrafish, crude drug dosage high 40 μg/mL, low 20 μg/mL, three days, compared with model group)?
A: The glucose content was “reduce a glucose content in vivo”.

Q: What about the “survival rate of ARPE-19 cells” value [3] of the same compound?
A: Its value is “improve a survival rate”.

Q: And the “relative mRNA expressions of p38, ERK and JNK” value [4]?
A: Its value is “down-regulate expression levels”.

Q: And the retinal vascular diameter (DR zebrafish [5])?
A: The retinal vascular diameter was “significantly reduce a retinal vascular diameter”.

Q: What about the oxidative stress [6] of the same compound?
A: Its oxidative stress is “improve oxidative stress”.

Q: What about the “ROS content (ROS fluorescence intensity)” value [7] of the same compound?
A: Its value is “significantly reduce the generation of ROS”.
